Experiments:
[1] = system: normal NK cells expanded with K562-aAPC; assay: percent inhibition of viability; higher = more inhibition; conditions: 72 h, IL-2 2.5 ng/mL
Procedure: (§1)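 Drug sensitivity and resistance testing on K562-aAPC-expanded normal NK cells: 5 concentrations (10-fold steps over a 10,000-fold range), 72 h at 37 °C, viability by CellTiter-Glo normalised to DMSO and benzethonium chloride controls; DSS from the fitted curve.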

DERL-7 (IL-2 2.5 ng/mL) [2] = assay: as above; conditions: 72 h
IMC-1 (IL-2 20 ng/mL) [3] = assay: as above; conditions: 72 h
KAI3 (IL-2 2.5 ng/mL) [4] = assay: as above; conditions: 72 h
KHYG-1 (IL-2 2.5 ng/mL) [5] = assay: as above; conditions: 72 h
NK-92 (IL-2 2.5 ng/mL) [6] = assay: as above; conditions: 72 h
NK-YS (IL-2 2.5 ng/mL) [7] = assay: as above; conditions: 72 h
NKL (IL-2 2.5 ng/mL) [8] = assay: as above; conditions: 72 h
SNK-6 (IL-2 2.5 ng/mL) [9] = assay: as above; conditions: 72 h
YT (IL-2 2.5 ng/mL) [10] = assay: as above; conditions: 72 h
[11] = system: normal primary NK cells, pool 1 (3 donors) (IL-2 2.5 ng/mL); assay: as above; conditions: 72 h
[12] = system: normal primary NK cells, pool 1 (3 donors), resting (IL-2 0 ng/mL); assay: as above; conditions: 72 h
[13] = system: normal primary NK cells, pool 2 (3 donors) (IL-2 2.5 ng/mL); assay: as above; conditions: 72 h
[14] = system: normal primary NK cells, pool 3 (3 donors) (IL-2 2.5 ng/mL); assay: as above; conditions: 72 h
[15] = system: normal NK cells expanded with K562-aAPC; assay: drug sensitivity score (DSS) (DSS units); higher = more sensitive; extreme values may be limits of the assay; conditions: 72 h; IL-2 2.5 ng/mL
Procedure: as §1

DERL-7 (IL-2 2.5 ng/mL) [16] = assay: as above; conditions: 72 h
IMC-1 (IL-2 20 ng/mL) [17] = assay: as above; conditions: 72 h
KAI3 (IL-2 2.5 ng/mL) [18] = assay: as above; conditions: 72 h
KHYG-1 (IL-2 2.5 ng/mL) [19] = assay: as above; conditions: 72 h
NK-92 (IL-2 2.5 ng/mL) [20] = assay: as above; conditions: 72 h
NK-YS (IL-2 2.5 ng/mL) [21] = assay: as above; conditions: 72 h
NKL (IL-2 2.5 ng/mL) [22] = assay: as above; conditions: 72 h
SNK-6 (IL-2 2.5 ng/mL) [23] = assay: as above; conditions: 72 h
YT (IL-2 2.5 ng/mL) [24] = assay: as above; conditions: 72 h
[25] = system: normal primary NK cells, pool 1 (3 donors) (IL-2 2.5 ng/mL); assay: as above; conditions: 72 h
[26] = system: normal primary NK cells, pool 1 (3 donors), resting (IL-2 0 ng/mL); assay: as above; conditions: 72 h
[27] = system: normal primary NK cells, pool 2 (3 donors) (IL-2 2.5 ng/mL); assay: as above; conditions: 72 h
[28] = system: normal primary NK cells, pool 3 (3 donors) (IL-2 2.5 ng/mL); assay: as above; conditions: 72 h

COc1ccccc1S(=O)(=O)Nc1ccc2c(c1)CN(C)C(=O)N2 [PFI-1] (max concentration tested 10000 nM)
percent inhibition of viability [%]
Conditions	1 nM	10 nM	100 nM	1000 nM	10000 nM
DERL-7 (IL-2 2.5 ng/mL) [2]	-2.29	2.86	9.32	41.8	91.8
IMC-1 (IL-2 20 ng/mL) [3]	-2.65	-6.11	-1.36	1.44	52.3
KAI3 (IL-2 2.5 ng/mL) [4]	-2.2	1.8	-7.46	5.35	48
KHYG-1 (IL-2 2.5 ng/mL) [5]	-2.18	-2.43	-0.21	19.9	89.2
NK-92 (IL-2 2.5 ng/mL) [6]	-6.34	6.35	-0.51	-18.3	14.6
NK-YS (IL-2 2.5 ng/mL) [7]	-6.14	-3.35	2.77	24.8	70
NKL (IL-2 2.5 ng/mL) [8]	-16	-14.6	-8.15	32	70.4
SNK-6 (IL-2 2.5 ng/mL) [9]	-3.16	-6.59	7.82	7.89	48.9
YT (IL-2 2.5 ng/mL) [10]	1.99	0.44	-0.45	5.52	53.1
[1]	1.38	-2.34	0.83	10.4	45.7
[11]	1.67	-1.14	-0.56	0.29	39.4
[12]	-7.18	7.82	-0.65	-5.17	29.6
[13]	-9.32	-3.5	-1.83	9.71	50.9
[14]	-2.26	-5.87	0.68	4.06	32.9

Conditions	drug sensitivity score
DERL-7 (IL-2 2.5 ng/mL) [16]	9.94
IMC-1 (IL-2 20 ng/mL) [17]	2.96
KAI3 (IL-2 2.5 ng/mL) [18]	3.39
KHYG-1 (IL-2 2.5 ng/mL) [19]	8.09
NK-92 (IL-2 2.5 ng/mL) [20]	0.06
NK-YS (IL-2 2.5 ng/mL) [21]	7.15
NKL (IL-2 2.5 ng/mL) [22]	8.04
SNK-6 (IL-2 2.5 ng/mL) [23]	3.9
YT (IL-2 2.5 ng/mL) [24]	3.74
[15]	4.03
[25]	1.98
[26]	0.99
[27]	4.3
[28]	2.17

Reference: the supplement of paper PMC5908809
